Measured values taken from US5760240A, “Taxoid synthesis” (The Scripps Research Institute, priority 1995, dated 1998).

Columns and labels:
[1] = tested on: HT-29; assay: Cytotoxicity against tumor cell lines: HT-29; format: cell-based; conditions: Homo sapiens; cell line HT-29
[2] = tested on: BT-549; assay: Cytotoxicity against tumor cell lines: BT-549; format: cell-based; conditions: Homo sapiens; cell line BT-549
[3] = tested on: 786-0; assay: Cytotoxicity against tumor cell lines: 786-0; format: cell-based; conditions: Homo sapiens; cell line 786-0
[4] = tested on: Ovcar 3; assay: Cytotoxicity against tumor cell lines: Ovcar 3; format: cell-based; conditions: Homo sapiens; cell line Ovcar 3
[5] = tested on: SK-Mel-28; assay: Cytotoxicity against tumor cell lines: SK-Mel-28; format: cell-based; conditions: Homo sapiens; cell line SK-Mel-28
[6] = tested on: UCLA-P3; assay: Cytotoxicity against tumor cell lines: UCLA-P3; format: cell-based; conditions: Homo sapiens, UCLA P-3; cell line UCLA-P3
[7] = tested on: SK-NH-SH; assay: Cytotoxicity against tumor cell lines: SK-NH-SH; format: cell-based; conditions: cell line SK-NH-SH
[8] = tested on: L-1210; assay: Cytotoxicity against tumor cell lines: L-1210; format: cell-based; conditions: Mus musculus, L1210; cell line L-1210
[9] = tested on: A-549; assay: Cytotoxicity against tumor cell lines: A-549; format: cell-based; conditions: Homo sapiens, A549; cell line A-549
[10] = tested on: a variety of tumor cell lines; assay: Cytotoxicity against a variety of tumor cell lines (in words); conditions: 15 and 15' under the same conditions
[11] = tested on: SIH-A; assay: Cytotoxicity against tumor cell lines: SIH-A; format: cell-based; conditions: Homo sapiens, SiHa; cell line SIH-A

Row | Structure (SMILES) | IC50 [1] [nM] | IC50 [2] [nM] | IC50 [3] [nM] | IC50 [4] [nM] | IC50 [5] [nM] | IC50 [6] [nM] | IC50 [7] [nM] | IC50 [8] [nM] | IC50 [9] [nM] | cytotoxicity against a variety of tumor cell lines [10] | cytotoxicity against a variety of tumor cell lines ([10]; listed as 15') | IC50 [11] [nM]
1 | CC(=O)O[C@H]1C(=O)[C@@]2(C)[C@H]([C@H](OC(=O)c3ccccc3)[C@]3(O)C[C@H](OC(=O)[C@H](O)[C@@H](NC(=O)c4ccccc4)c4ccccc4)C(C)=C1C3(C)C)[C@]1(OC(C)=O)CO[C@@H]1C[C@@H]2O [Taxol, reference compound] | 51 | 0.5 | 2200 | 0.62 | 120 | 6.4 | 0.62 | 7 | – | – | – | –
2 | CC(=O)O[C@@H]1C2=C(C)[C@@H](OC(=O)[C@H](O)[C@@H](NC(=O)c3ccccc3)c3ccccc3)C[C@@](O)([C@@H](OC(=O)c3ccccc3)c3ccccc3[C@H]1OC(C)=O)C2(C)C [Compound 15] | 129 | 5300 | 1930 | 280 | 2710 | 296 | 4910 | 1110 | 645 | significant cytotoxicity | essentially no cytotoxicity | 1290
